Test results reported in publication PMC10967270, “Intrapulmonary and Systemic Pharmacokinetics of Colistin Following Nebulization of Low-Dose Colistimethate Sodium in Patients with Ventilator-Associated Pneumonia Caused by Carbapenem-Resistant Acinetobacter baumannii” (Antibiotics, 2024).
Positions of bridges follow the written chain, without caps; N, C: chain ends. Non-standard residues stand in square brackets, D forms with d. Residues, ends and D or L forms follow the SMILES beside them. *: point of attachment. X1 = CC[C@H](C)CCCCC(=O)*; Dab = NCC[C@H](N)C(=O)O

Assays:
A. baumannii = conditions: murine thigh infection model; cited from earlier work
[1] = cited from earlier work
Experimental: We investigated whether the fAUC values of individual patients were associated with clinical or microbiological outcomes (Table 3). Using individual estimates of CL derived from the final PK model, we calculated the steady-state fAUC for each patient when a total of 3.75 MIU (=300 mg CMS = 112.5 mg CBA) was administered at 6 h intervals four times a day, using the formula AUC = DOSE/CL. The unbound fraction of colistin was assumed to be 10% [25] in the ELF based on the study by Gkoufa et al. and 34% in the plasma based on the study by Mohamed et al.. Gkoufa et al. presented concentrat ...

[2] = Population PK model of colistin in epithelial lining fluid (NONMEM, one-compartment, Weibull absorption); type: in vivo, human; conditions: ELF
Description: The time courses of colistin concentrations in ELF and plasma were best described using one-compartment models with a Weibull absorption process. The following structural PK model described by two differential equations was applied:(1) dA1/dt=−WB×A1 (2) WB=KAMAX×1−e^−RA×time^GAM (3) dA2/dt=WB×A1−CL/V×A2 where A1 and A2 represent the amounts of colistin in ELF and plasma, and WB denotes the Weibull absorption function with parameters KAMMA, RA, and GAM. KAMMA determines the function’s maximum value, often representing the maximum rate of absorption or event occurrence. RA, the shape parameter, controls the rate of change over time, influencing the distribution’s slope and how quickly it increases or decreases. GAM adjusts the time variable’s exponent, controlling the rate of growth or decline over time, thereby affecting the distribution’s asymmetry and indicating the curve’s speed in reaching its peak or declining. CL and V are the total clearance and volume of distribution for colistin, respectively. The estimated CL and V in Table 2 were expressed as CL/fm and V/fm, respectively, where fm represents the fraction of CMS metabolized to colistin, a value that cannot be estimated from our study data. No significant covariates influencing the PK parameters were identified. The estimated PK parameters for the final PK models are presented in Table 2, while individual fit plots for colistin in ELF and plasma can be found in Figure 2 and Figure 3, respectively. Diagnostic goodness-of-fit plots for the final PK model of colistin in ELF and plasma are shown in Supplementary Materials Figures S1 and S2, respectively. […] With the observed 10th, 50th, and 90th percentiles mostly within the 95% confidence intervals of the simulated percentiles, the final PK models effectively explained the observed concentrations and had good predictive performance.
A population PK analysis of colistin in ELF and plasma was conducted using NONMEM 7.5.0 (ICON Clinical Research LLC, North Wales, PA, USA). The analysis used first-order conditional estimation with interaction (FOCEI) to estimate both observed fixed and unexplained random effect parameters. The FOCEI allows the inter-individual variability (IIV) in the PK parameters to interact with the residual unexplained variability (RUV) in the observed concentrations. The RUV arises from factors such as within-subject variability, assay error, and potential misspecification of the model. ADVAN1 TRANS2 and ADVAN3 TRANS4 from the NONMEM PK model library were used to construct the single- and two-compartment models, respectively. Except for drug inhalation, all PK processes were assumed to follow first-order kinetics. Various absorption models, including zero-order, first-order, Weibull, and transit absorption models, were investigated to describe the absorption processes of colistin.
The representation of each PK parameter was given by θi = θ × exp(ηi), where θ stands for the typical value of the PK parameter, θi represents an individual PK parameter, and ηi is a random variable associated with IIV. It was assumed that IIV follows a normal distribution with a mean of 0 and a variance of ω^2. For RUV, which was assumed to be normally distributed with a mean of 0 and a variance of σ^2; additive, proportional, and combined additive and proportional error models were investigated.
Models were assessed and chosen based on NONMEM objective function values (OFVs), the precision of parameter estimates (relative standard errors), the shrinkage of IIV, and diagnostic goodness-of-fit plots. In the log-likelihood ratio test, if the decrease in OFV (ΔOFV) is greater than 3.84 for models with one additional degree of freedom or greater than 5.99 for models with two additional degrees of freedom, it is considered statistically significant at p < 0.05, indicating an improvement in the model. […]

## CC[C@H](C)CCCCC(=O)N[C@@H](CCN)C(=O)N[C@H](C(=O)N[C@@H](CCN)C(=O)N[C@H]1CCNC(=O)[C@H]([C@@H](C)O)NC(=O)[C@H](CCN)NC(=O)[C@H](CCN)NC(=O)[C@H](CC(C)C)NC(=O)[C@@H](CC(C)C)NC(=O)[C@H](CCN)NC1=O)[C@@H](C)O [colistin] (X1-[Dab]T[Dab][Dab][Dab][dL]L[Dab][Dab]T; lactam 4-C)
A. baumannii
  fAUC/MIC target values for a 2 log10 kill: 17.5–43.0 mg/L·h
[1]; assumed, rounded from 0.099 used in simulations by Gkoufa et al.
  Unbound fraction of colistin in the ELF: 10%
[1]; equilibrium dialysis, Mohamed et al.
  Unbound fraction of colistin in plasma, median: 34%
[2]; 2000 bootstrap samples
  CL/fm, bootstrap median (95% CI): 0.529 (0.352–0.77) mL/min
  KAMAX, bootstrap median (95% CI): 0.533 (0.335–0.973)
  V/fm, bootstrap median (95% CI): 24.3 (11.0–46.7) mL
[2]; Weibull absorption
  KAMAX (maximum rate of absorption), estimate: 0.531
[2]; final PK model
  CL/fm, estimate: 0.541 mL/min
  V/fm, estimate: 23.0 mL
